In ChEMBL document CHEMBL1159229, “In vitro anticomplementary activity of constituents from Morinda morindoides” (J Nat Prod, 1995):

Legend:
Cavia porcellus [1] = organism: Cavia porcellus; assay: Inhibition of guinea pig classical complement system assessed as hemolysis of sensitized sheep erythrocytes at 1000 uM
Cavia porcellus [2] = organism: Cavia porcellus; assay: Inhibition of guinea pig classical complement system assessed as hemolysis of sensitized sheep erythrocytes
Homo sapiens [3] = organism: Homo sapiens; assay: Inhibition of human plasma alternative complement system assessed as hemolysis of non-sensitized rabbit erythrocytes at 1000 uM; format: cell-free
Homo sapiens [4] = organism: Homo sapiens; assay: Activation of human plasma alternative complement system assessed as hemolysis of non-sensitized rabbit erythrocytes at 1000 uM; format: cell-free
Cavia porcellus [5] = organism: Cavia porcellus; assay: Activation of guinea pig classical complement system assessed as hemolysis of sensitized sheep erythrocytes at 1000 uM

## C[C@@H]1O[C@@H](Oc2c(-c3ccc(O)c(O)c3)oc3cc(O)cc(O)c3c2=O)[C@H](O)[C@H](O)[C@H]1O
Cavia porcellus [1]
  inhibition: 56.2%
Cavia porcellus [2]
  Activity: Dose-dependent effect
Homo sapiens [3]
  inhibition: 13.5%

## COc1cc(O)c2c(=O)c(O)c(-c3ccc(OC)c(O)c3)oc2c1
Cavia porcellus [1]
  inhibition: 24.3%
Homo sapiens [4]
  Activity: 13.7%

## COc1cc(-c2cc(=O)c3c(O)cc(O[C@@H]4O[C@H](CO)[C@@H](O)[C@H](O)[C@H]4O[C@@H]4O[C@@H](C)[C@H](O)[C@@H](O)[C@H]4O)cc3o2)ccc1O
Cavia porcellus [5]
  Activity: 4.6%
Homo sapiens [4]
  Activity: 11.2%

## C[C@@H]1O[C@@H](OC[C@H]2O[C@@H](Oc3c(-c4ccc(O)c(O)c4)oc4cc(O)cc(O)c4c3=O)[C@H](O)[C@@H](O)[C@@H]2O)[C@H](O)[C@H](O)[C@H]1O
Cavia porcellus [1]
  inhibition: 54.4%
Cavia porcellus [2]
  Activity: Dose-dependent effect
Homo sapiens [3]
  inhibition: 18%

## O=c1cc(-c2ccc(O)c(O)c2)oc2cc(O[C@@H]3O[C@H](CO)[C@@H](O)[C@H](O)[C@H]3O)cc(O)c12
Cavia porcellus [1]
  inhibition: 25.2%
Homo sapiens [3]
  inhibition: 2%

## COc1cc(-c2cc(=O)c3c(O)cc(O)cc3o2)ccc1O
Cavia porcellus [5]
  Activity: 9%
Homo sapiens [4]
  Activity: 59%

## C[C@@H]1O[C@@H](Oc2c(-c3ccc(O)cc3)oc3cc(O)cc(O)c3c2=O)[C@H](O)[C@H](O)[C@H]1O
Cavia porcellus [1]
  inhibition: 5.6%
Homo sapiens [3]
  inhibition: 6.2%

## O=c1c(O)c(-c2ccc(O)c(O)c2)oc2cc(O)cc(O)c12
Cavia porcellus [1]
  inhibition: 52.5%
Cavia porcellus [2]
  Activity: Dose-dependent effect
Homo sapiens [3]
  inhibition: 24%

## O=C(/C=C/c1ccc(O)c(O)c1)O[C@H](Cc1ccc(O)c(O)c1)C(=O)O
Cavia porcellus [1]
  inhibition: 93.3%
Cavia porcellus [2]
  Activity: Dose-dependent effect
Homo sapiens [3]
  inhibition: 67.8%

## O=c1cc(-c2ccc(O)cc2)oc2cc(O[C@@H]3O[C@H](CO)[C@@H](O)[C@H](O)[C@H]3O)cc(O)c12
Cavia porcellus [5]
  Activity: 2.34%
Homo sapiens [4]
  Activity: 2.4%

## C[C@@H]1O[C@@H](OC[C@H]2O[C@@H](Oc3c(-c4ccc(O)cc4)oc4cc(O)cc(O)c4c3=O)[C@H](O)[C@@H](O)[C@@H]2O)[C@H](O)[C@H](O)[C@H]1O
Cavia porcellus [1]
  inhibition: 19.2%
Homo sapiens [4]
  Activity: 18.4%
